Measured values: PubChem BioAssay AID248 (DTP/NCI, 2004)
Where “and” joins values, the source holds several entries; their conditions need not be identical. Identical values can stand only once. Inconclusive results and toxic doses are left out. Rule as the data show it: active = T/C of 150% or more; inactive = T/C below 125%.

System: L1210 leukemia ip in BDF1 mice, survival T/C
Experiment: NCI In Vivo Anticancer Drug Screen. Data for tumor model L1210 Leukemia (intraperitoneal) in B6D2F1 (BDF1) mice
Conditions: endpoint: mean survival time, higher = longer survival
Procedure, shortened: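 Transplantable tumor model; survival measured in treated vs vehicle control mice. Value = treated/control.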

[1] = dose: 100.0 mg/kg/injection, schedule: Q01DX009 (ip), vehicle: saline with Tween-80
[2] = dose: 200.0 mg/kg/injection, schedule: Q01DX009 (ip), vehicle: saline with Tween-80
[3] = dose: 100.0 mg/kg/injection, schedule: Q04DX003 (ip), vehicle: Klucel (hydroxypropylcellulose) (HPC)
[4] = dose: 200.0 mg/kg/injection, schedule: Q04DX003 (ip), vehicle: Klucel (hydroxypropylcellulose) (HPC)
[5] = dose: 400.0 mg/kg/injection, schedule: Q04DX003 (ip), vehicle: Klucel (hydroxypropylcellulose) (HPC)
[6] = dose: 100.0 mg/kg/injection, schedule: Q04DX003 (ip), vehicle: saline with Tween-80
[7] = dose: 100.0 mg/kg/injection, schedule: Q04DX003 (ip), vehicle: saline
[8] = dose: 200.0 mg/kg/injection, schedule: Q04DX003 (ip), vehicle: saline
[9] = dose: 100.0 mg/kg/injection, schedule: Q01DX001 (ip), vehicle: saline
[10] = dose: 200.0 mg/kg/injection, schedule: Q01DX001 (ip), vehicle: saline
[11] = dose: 400.0 mg/kg/injection, schedule: Q01DX001 (ip), vehicle: saline
[12] = dose: 200.0 mg/kg/injection, schedule: Q04DX003 (ip), vehicle: saline with Tween-80
[13] = dose: 400.0 mg/kg/injection, schedule: Q01DX009 (ip), vehicle: saline with Tween-80
[14] = dose: 400.0 mg/kg/injection, schedule: Q04DX003 (ip), vehicle: saline with Tween-80
[15] = dose: 50.0 mg/kg/injection, schedule: Q01DX009 (ip), vehicle: Klucel (hydroxypropylcellulose) (HPC)
[16] = dose: 100.0 mg/kg/injection, schedule: Q01DX009 (ip), vehicle: Klucel (hydroxypropylcellulose) (HPC)
[17] = dose: 200.0 mg/kg/injection, schedule: Q01DX009 (ip), vehicle: Klucel (hydroxypropylcellulose) (HPC)
[18] = dose: 100.0 mg/kg/injection, schedule: Q04DX002 (ip), vehicle: saline with Tween-80
[19] = dose: 200.0 mg/kg/injection, schedule: Q04DX002 (ip), vehicle: saline with Tween-80
[20] = dose: 400.0 mg/kg/injection, schedule: Q04DX002 (ip), vehicle: saline with Tween-80
[21] = dose: 100.0 mg/kg/injection, schedule: Q04DX002 (ip), vehicle: Klucel (hydroxypropylcellulose) (HPC)
[22] = dose: 200.0 mg/kg/injection, schedule: Q04DX002 (ip), vehicle: Klucel (hydroxypropylcellulose) (HPC)
[23] = dose: 400.0 mg/kg/injection, schedule: Q04DX002 (ip), vehicle: Klucel (hydroxypropylcellulose) (HPC)

Measured: T/C

CNC(=O)Nc1cccc(OC(=O)NC(C)(C)C)c1
inactive: [1] 91 % of control | [2] 93 % of control

Cc1oc2ccc(O)c(N=Nc3cccc([N+](=O)[O-])c3)c2c1C
inactive: [3] 97 % of control | [4] 101 % of control | [5] 109 % of control

COc1ccc(C(=O)C(Br)C(Br)C(=O)O)cc1 (stereo unspecified)
inactive: dose: 12.5 mg/kg/injection, schedule: Q01DX009 (ip), vehicle: saline with Tween-80 93 % of control | dose: 25.0 mg/kg/injection, schedule: Q01DX009 (ip), vehicle: saline with Tween-80 102 % of control | dose: 25.0 mg/kg/injection, schedule: Q01DX009 (ip), vehicle: saline 102 % of control | dose: 25.0 mg/kg/injection, schedule: Q04DX003 (ip), vehicle: saline with Tween-80 98 % of control and 103 % of control | dose: 50.0 mg/kg/injection, schedule: Q01DX009 (ip), vehicle: saline with Tween-80 104 % of control | dose: 50.0 mg/kg/injection, schedule: Q01DX009 (ip), vehicle: saline 100 % of control and 94 % of control | dose: 50.0 mg/kg/injection, schedule: Q04DX003 (ip), vehicle: saline with Tween-80 100 % of control and 101 % of control and 103 % of control | dose: 66.0 mg/kg/injection, schedule: Q04DX003 (ip), vehicle: saline 102 % of control | [1] 86 % of control | dose: 100.0 mg/kg/injection, schedule: Q01DX009 (ip), vehicle: saline 97 % of control and 89 % of control | [6] 100 % of control and 104 % of control and 107 % of control | [7] 106 % of control and 122 % of control and 92 % of control | dose: 150.0 mg/kg/injection, schedule: Q04DX003 (ip), vehicle: saline 111 % of control | [8] 108 % of control

O=S(c1ccccc1)c1ccc2cccccc1-2 (stereo unspecified)
inactive: dose: 100.0 mg/kg/injection, schedule: Q01DX001 (ip), vehicle: carboxymethylcellulose (CMC) 91 % of control | dose: 200.0 mg/kg/injection, schedule: Q01DX001 (ip), vehicle: carboxymethylcellulose (CMC) 94 % of control | dose: 400.0 mg/kg/injection, schedule: Q01DX001 (ip), vehicle: carboxymethylcellulose (CMC) 100 % of control

CCC(NC(=O)CCl)C(=O)O (stereo unspecified)
inactive: dose: 100.0 mg/kg/injection, schedule: Q04DX002 (ip), vehicle: saline 120 % of control | dose: 200.0 mg/kg/injection, schedule: Q04DX002 (ip), vehicle: saline 103 % of control

Cc1ccc(S(=O)(=O)OC2COC3C(OS(=O)(=O)c4ccc(C)cc4)COC23)cc1 (stereo unspecified)
inactive: [9] 93 % of control | dose: 100.0 mg/kg/injection, schedule: Q04DX003 (ip), vehicle: DMSO 103 % of control | [10] 96 % of control | dose: 200.0 mg/kg/injection, schedule: Q04DX003 (ip), vehicle: DMSO 97 % of control | [11] 93 % of control | dose: 400.0 mg/kg/injection, schedule: Q04DX003 (ip), vehicle: DMSO 111 % of control

Cc1ccc(NS(=O)(=O)c2ccccc2)cc1
inactive: [1] 106 % of control | [6] 104 % of control | [7] 93 % of control | [2] 101 % of control | [12] 100 % of control | [8] 101 % of control | [13] 103 % of control | [14] 104 % of control | dose: 400.0 mg/kg/injection, schedule: Q04DX003 (ip), vehicle: saline 106 % of control

OC(CC(O)(c1ccccc1)c1ccccc1)(c1ccccc1)c1ccccc1
inactive: dose: 9.5 mg/kg/injection, schedule: Q01DX001 (ip), vehicle: other 93 % of control | dose: 19.0 mg/kg/injection, schedule: Q01DX001 (ip), vehicle: other 96 % of control | dose: 38.0 mg/kg/injection, schedule: Q01DX001 (ip), vehicle: other 93 % of control

NS(=O)(=O)c1cc(Br)c(N=Nc2ccc(O)c3ncccc23)c(Br)c1
inactive: [9] 100 % of control | [10] 100 % of control | [11] 108 % of control

COC(=O)c1ccccc1NC(=O)Nc1cc([N+](=O)[O-])ccc1OC
inactive: [15] 90 % of control | [16] 97 % of control | [17] 108 % of control

Oc1ccc2cc(Br)ccc2c1-c1c(O)ccc2cc(Br)ccc12
inactive: [18] 97 % of control | [19] 94 % of control | [20] 87 % of control

COc1ccc(Cl)cc1NC(=O)Oc1ccc(C(C)=O)cc1
inactive: dose: 100.0 mg/kg/injection, schedule: Q01DX001 (ip), vehicle: saline with Tween-80 100 % of control | [1] 97 % of control and 104 % of control | [18] 121 % of control | [6] 90 % of control | dose: 200.0 mg/kg/injection, schedule: Q01DX001 (ip), vehicle: saline with Tween-80 100 % of control | [2] 96 % of control | [19] 99 % of control | [12] 87 % of control | dose: 400.0 mg/kg/injection, schedule: Q01DX001 (ip), vehicle: saline with Tween-80 93 % of control | [13] 100 % of control and 86 % of control | [20] 99 % of control | [14] 99 % of control

[Si]c1cccc2ccccc12
inactive: dose: 25.6 mg/kg/injection, schedule: Q04DX002 (ip), vehicle: saline with Tween-80 97 % of control | dose: 64.0 mg/kg/injection, schedule: Q04DX002 (ip), vehicle: saline with Tween-80 97 % of control | dose: 160.0 mg/kg/injection, schedule: Q04DX002 (ip), vehicle: saline with Tween-80 97 % of control | [20] 101 % of control

CCOC(=O)CCCc1c(C)[nH]c2ccc(Cl)cc12
inactive: [21] 98 % of control | [22] 102 % of control | [23] 91 % of control

CC(=O)c1cccc(NC(=O)Nc2nccs2)c1
inactive: dose: 100.0 mg/kg/injection, schedule: Q01DX001 (ip), vehicle: Klucel (hydroxypropylcellulose) (HPC) 100 % of control | [16] 101 % of control and 92 % of control | [21] 101 % of control and 91 % of control | [3] 101 % of control | dose: 200.0 mg/kg/injection, schedule: Q01DX001 (ip), vehicle: Klucel (hydroxypropylcellulose) (HPC) 104 % of control | [17] 104 % of control | [22] 104 % of control and 109 % of control | [4] 103 % of control | dose: 400.0 mg/kg/injection, schedule: Q01DX001 (ip), vehicle: Klucel (hydroxypropylcellulose) (HPC) 96 % of control | dose: 400.0 mg/kg/injection, schedule: Q01DX009 (ip), vehicle: Klucel (hydroxypropylcellulose) (HPC) 109 % of control and 88 % of control | [23] 96 % of control | [5] 96 % of control

CCC/C(C)=N/Nc1ccccn1
inactive: dose: 12.5 mg/kg/injection, schedule: Q01DX009 (ip), vehicle: Klucel (hydroxypropylcellulose) (HPC) 97 % of control | dose: 25.0 mg/kg/injection, schedule: Q01DX009 (ip), vehicle: Klucel (hydroxypropylcellulose) (HPC) 94 % of control | dose: 25.0 mg/kg/injection, schedule: Q01DX009 (ip), vehicle: acetone 106 % of control | [15] 102 % of control | dose: 50.0 mg/kg/injection, schedule: Q01DX009 (ip), vehicle: acetone 87 % of control | dose: 50.0 mg/kg/injection, schedule: Q04DX003 (ip), vehicle: acetone 103 % of control | dose: 100.0 mg/kg/injection, schedule: Q01DX001 (ip), vehicle: acetone 98 % of control | [16] 102 % of control | dose: 100.0 mg/kg/injection, schedule: Q04DX003 (ip), vehicle: acetone 97 % of control | dose: 200.0 mg/kg/injection, schedule: Q01DX001 (ip), vehicle: acetone 103 % of control

COc1cc(C)c(C)cc1C(C)C(C)C(=O)O (stereo unspecified)
inactive: [3] 97 % of control | [4] 98 % of control | [5] 98 % of control

[Cl][Co][Cl].[NH-]CCC[NH-].[NH-]CCC[NH-]
inactive: [7] 109 % of control
